Results: US20230263822A1, “MODULATION OF FACTOR 11 EXPRESSION” (Ionis Pharmaceuticals, Inc., priority 2008, published 2023)
Strand notation (5' to 3'): a small letter for the sugar, then the base; units joined by * are phosphorothioate-linked, units joined directly phosphodiester-linked; [ ] holds rarer units or linkages, { } end groups; capitals alone tell only the bases. e = 2'-O-(2-methoxyethyl) (MOE); [5mC] = 5-methylcytosine; d = 2'-deoxy (DNA)

How the values were obtained:
[1] = test system: human Factor 11 mRNA; assay: Dose-dependent inhibition of human Factor 11 in HepG2 cells, electroporation 375-12,000 nM (Example 32); assay type: cell-based; settings: for Percent inhibition of Factor 11 mRNA at 375 nM / Percent inhibition of Factor 11 mRNA at 750 nM / IC50: electroporation; for Percent inhibition of Factor 11 mRNA at 375 nM / Percent inhibition of Factor 11 mRNA at 750 nM / Percent inhibition of Factor 11 mRNA at 1,500 nM / Percent inhibition of Factor 11 mRNA at 3,000 nM / Percent inhibition of Factor 11 mRNA at 6,000 nM / Percent inhibition of Factor 11 mRNA at 12,000 nM: approx. 16 hours, relative to untreated control cells; for Percent inhibition of Factor 11 mRNA at 1,500 nM: electroporation, 1,500 nM; for Percent inhibition of Factor 11 mRNA at 3,000 nM: electroporation, 3,000 nM; for Percent inhibition of Factor 11 mRNA at 6,000 nM: electroporation, 6,000 nM; for Percent inhibition of Factor 11 mRNA at 12,000 nM: electroporation, 12,000 nM; for IC50: Factor 11 mRNA expression
Method: These gapmers were tested at various doses in HepG2 cells. Cells were plated at a density of 20,000 cells per well and transfected using electroporation with 375 nM, 750 nM, 1,500 nM, 3,000 nM, 6,000 nM and 12,000 nM concentrations of antisense oligonucleotide, as specified in Table 47. After a treatment period of approximately 16 hours, RNA was isolated from the cells and Factor 11 mRNA levels were measured by quantitative real-time PCR. Human Factor 11 primer probe set RTS 2966 was used to measure mRNA levels. Factor 11 mRNA levels were adjusted according to total RNA content, as measured by RIBOGREEN. Results are presented as percent inhibition of Factor 11, relative to untreated control cells.
ISIS 416850, ISIS 416858, ISIS 445522, and ISIS 445531 (see Table 45 above) were re-tested in vitro along with the microwalk gapmers under the same conditions described above.
The first two listed gapmers in Table 47 are the original gapmers (ISIS 416850 and ISIS 416858) from which the remaining gapmers were designed via microwalk and are designated by an asterisk.

[2] = test system: Factor 11 mRNA; assay: Factor 11 mRNA in cynomolgus monkey liver, day 55 (Example 46); assay type: in vivo, cynomolgus monkeys; settings: 25 mg/kg subcutaneously, primer probe set LTS00301
Method: (§1) Groups, each consisting of two male and two female monkeys, were injected subcutaneously with 25 mg/kg of ISIS 416850, ISIS 449709, ISIS 445522, ISIS 449710, ISIS 449707, ISIS 449711, ISIS 449708, 416858, and ISIS 445531. Antisense oligonucleotide was administered to the monkeys at 25 mg/kg three times per week for week 1 and 25 mg/kg twice per week for weeks 2 to 8. A control group, consisting of two male and two female monkeys was injected subcutaneously with PBS according to the same dosing regimen. Body weights were taken 14 days and 7 days before the start of treatment and were then measured weekly throughout the treatment period. Blood samples were collected 14 days and 5 days before the start of treatment and subsequently several times during the dosing regimen for PT and aPTT measurements, and measurement of various hematologic factors. On day 55, the monkeys were euthanized by exsanguination while under deep anesthesia, and organs harvested for further analysis.
On day 55, RNA was extracted from liver tissue for real-time PCR analysis of Factor 11 using primer probe set LTS00301. Results are presented as percent inhibition of Factor 11, relative to PBS control.

[3] = Viscosity of ISIS antisense oligonucleotides, micro-viscometer at 25 °C (Example 47); assay type: physicochemical; settings: for Concentration: concentration of the viscosity sample, UV reading at 260 nM at 85° C.; for Viscosity: in water, micro-viscometer at 25° C., at the concentration of the same line
Method: The viscosity of antisense oligonucleotides targeting human Factor 11 was measured with the aim of screening out antisense oligonucleotides which have a viscosity more than 40 cP at a concentration of 165-185 mg/mL.
ISIS oligonucleotides (32-35 mg) were weighed into a glass vial, 120 μL of water was added and the antisense oligonucleotide was dissolved into solution by heating the vial at 50° C. Part of (75 μL) the pre-heated sample was pipetted to a micro-viscometer (Cambridge). The temperature of the micro-viscometter was set to 25° C. and the viscosity of the sample was measured. Another part (20 μL) of the pre-heated sample was pipetted into 10 mL of water for UV reading at 260 nM at 85° C. (Cary UV instrument).

[4] = test system: Factor 11 protein; assay: Factor 11 protein in monkey plasma by sandwich ELISA (Example 46); assay type: in vivo, cynomolgus monkeys; settings: 25 mg/kg subcutaneously
Method: as §1
Plasma samples from all monkey groups taken on different days were analyzed by a sandwich-style ELISA assay (Affinity Biologicals Inc.) using an affinity-purified polyclonal anti-Factor 11 antibody as the capture antibody and a peroxidase-conjugated polyclonal anti-Factor 11 antibody as the detecting antibody. Monkey plasma was diluted 1:50 for the assay. Peroxidase activity was expressed by incubation with the substrate o-phenylenediamine. The color produced was quantified using a microplate reader at 490 nm and was considered to be proportional to the concentration of Factor 11 in the samples.
The results are presented in Table 147, expressed as percentage reduction relative to that of the PBS control.

Substance | Percent inhibition of Factor 11 mRNA at 375 nM [1] | Percent inhibition of Factor 11 mRNA at 750 nM [1] | Percent inhibition of Factor 11 mRNA at 1,500 nM [1] | Percent inhibition of Factor 11 mRNA at 3,000 nM [1] | Percent inhibition of Factor 11 mRNA at 6,000 nM [1] | Percent inhibition of Factor 11 mRNA at 12,000 nM [1] | IC50 [1] | % inhibition of Factor 11 mRNA in liver relative to the PBS control [2] | Concentration [3] | Viscosity [3] | Inhibition of Factor 11 protein relative to the PBS control (percentage reduction) ([4]; Day 10, plasma) | Inhibition of Factor 11 protein relative to the PBS control (percentage reduction) ([4]; Day 17, plasma) | Inhibition of Factor 11 protein relative to the PBS control (percentage reduction) ([4]; Day 24, plasma) | Inhibition of Factor 11 protein relative to the PBS control (percentage reduction) ([4]; Day 31, plasma) | Inhibition of Factor 11 protein relative to the PBS control (percentage reduction) ([4]; Day 38, plasma) | Inhibition of Factor 11 protein relative to the PBS control (percentage reduction) ([4]; Day 45, plasma) | Inhibition of Factor 11 protein relative to the PBS control (percentage reduction) ([4]; Day 52, plasma) | Inhibition of Factor 11 protein relative to the PBS control (percentage reduction) ([4]; Day 55, plasma) | Inhibition of Factor 11 protein relative to the PBS control (percentage reduction) ([4]; Day −5, plasma) | Inhibition of Factor 11 protein relative to the PBS control (percentage reduction) ([4]; Day −14, plasma)
449708 (antisense eA*e[5mC]*eA*dG*dT*dT*dT*d[5mC]*dT*dG*dG*e[5mC]*eA*eG) [compound 449708] | 0% | 0% | 22% | 33% | 61% | 85% | 4460 nM | 46% | 188 mg/mL | 9 cP | 7% | 15% | 3% | 14% | 9% | 2% | 6% | 6% | 0% | 1%
449710 (antisense e[5mC]*eA*e[5mC]*dA*dG*dT*dT*dT*d[5mC]*dT*dG*dG*d[5mC]*eA*eG*eG) [compound 449710] | 2% | 21% | 52% | 70% | 82% | 87% | 1590 nM | 52% | 186 mg/mL | 7 cP | 10% | 14% | 17% | 25% | 20% | 23% | 4% | 24% | 0% | 1%
449709 (antisense eG*e[5mC]*eA*e[5mC]*dA*dG*dT*dT*dT*d[5mC]*dT*dG*dG*d[5mC]*eA*eG*eG*e[5mC]) [compound 449709] | 52% | 71% | 80% | 87% | 92% | 95% | 380 nM | 69% | 171 mg/mL | 65 cP | 27% | 35% | 44% | 45% | 46% | 48% | 47% | 50% | 0% | 1%
